# Data taken from patent US7348334B2, “Monocyclic derivatives of aryl alkanoic acids and their use in medicine: process for their preparation and pharmaceutical compositions containing them” (Dr. Reddy's Laboratories Limited, priority 2001, dated 2008).
# Counter-ions that a name gives are not always drawn.
# Tests used:
# C57BL/KsJ-db/db mice = assay: Blood sugar and triglyceride lowering in db/db mice; format: in vivo, mouse; conditions: 10 mg/kg oral gavage daily for 6 days
# From the text: Mutation in colonies of laboratory animals and different sensitivities to dietary regimens have made the development of animal models with non-insulin dependent diabetes and hyperlipidemia associated with obesity and insulin resistance possible. Genetic models such as db/db and ob/ob (Diabetes, (1982) 31(1): 1-6) mice and zucker fa/fa rats have been developed by the various laboratories for understanding the pathophysiology of disease and testing the efficacy of new antidiabetic compounds (Diabetes, (1983) 32: 830-838; Annu. Rep. Sankyo Res. Lab. (1994). 46: 1-57). The homozygous animals, C57 BL/KsJ-db/db mice developed by Jackson Laboratory, US, are obese, hyperglycemic, hyperinsulinemic and insulin resistant (J. Clin. Invest., (1990) 85: 962-967), whereas heterozygous are lean and normoglycemic. In db/db model, mouse progressively develops insulinopenia with age, a feature commonly observed in late stages of human type II diabetes when blood sugar levels are insufficiently controlled. The state of pancreas and its course vary according to the models. Since this model resembles that of type II diabetes mellitus, the compounds of the present invention were tested for blood sugar and triglycerides lowering activities.
# […] C57BL/KsJ-db/db mice of 8 to 14 weeks age, having body weight range of 35 to 60 grams, bred at Dr. Reddy's Research Foundation (DRF) animal house, were used in the experiment. The mice were provided with standard feed (National Institute of Nutrition (NIN), Hyderabad, India) and acidified water, ad libitum. The animals having more than 350 mg/dl blood sugar were used for testing. The number of animals in each group was 4.
# Test compounds were suspended on 0.25% carboxymethyl cellulose and administered to test group at a dose of 0.001 mg to 30 mg/kg through oral gavage daily for 6 days. The control group received vehicle (dose 10 ml/kg). On 6th day the blood samples were collected one hour after administration of test compounds/vehicle for assessing the biological activity.
# The random blood sugar and triglyceride levels were measured by collecting blood (100 μl) through orbital sinus, using heparinised capillary in tubes containing EDTA which was centrifuged to obtain plasma. The plasma glucose and triglyceride levels were measured spectrometrically, by glucose oxidase and glycerol-3-PO4 oxidase/peroxidase enzyme (Dr. Reddy's Lab. Diagnostic Division Kits, Hyderabad, India) methods respectively.
# The blood sugar and triglycerides lowering activities of the test compound was calculated according to the formula.
# (§1) 1. Percent reduction in Blood sugar/triglycerides/total cholesterol were calculated according to the formula: […]
# hPPARα = biological target: T1, hPPARα (Homo sapiens, UniProt Q07869); assay: Determination of hPPARα activity (GAL4 fusion luciferase reporter in HEK-293 cells); format: cell-based; conditions: compound at 50 μM
# T1 construct: expressed in transfected cells; host or cells: HEK-293
# T1 sequence (Q07869 239-466 limits assumed): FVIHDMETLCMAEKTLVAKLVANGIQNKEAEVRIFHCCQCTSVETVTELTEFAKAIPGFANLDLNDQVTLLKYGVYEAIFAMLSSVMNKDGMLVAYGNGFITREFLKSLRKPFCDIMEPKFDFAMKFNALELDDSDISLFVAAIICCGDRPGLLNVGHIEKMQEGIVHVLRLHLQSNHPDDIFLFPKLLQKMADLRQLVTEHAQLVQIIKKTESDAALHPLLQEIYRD
# Experimental: a) Determination of hPPARα Activity:
# Ligand binding domain of hPPARα was fused to DNA binding domain of Yeast transcription factor GAL4 in eucaryotic expression vector. Using superfect (Qiagen, Germany) as transfecting reagent HEK-293 cells were transfected with this plasmid and a reporter plasmid harboring the luciferase gene driven by a GAL4 specific promoter. Compound was added at different concentrations after 42 hrs of transfection and incubated overnight. Luciferase activity as a function of compound binding/activation capacity of PPARα was measured using Packard Luclite kit (Packard, USA) in Top Count (Ivan Sadowski, Brendan Bell, Peter Broag and Melvyn Hollis. Gene. 1992. 118: 137-141; Superfect Transfection Reagent Handbook. February 1997. Qiagen, Germany).
# hPPARγ1 = biological target: T2, hPPARγ1 (Homo sapiens, UniProt P37231); assay: Determination of hPPARγ activity (GAL4 fusion luciferase reporter in HEK-293 cells); format: cell-based; conditions: compound at 1 μM
# T2 construct: expressed in transfected cells; host or cells: HEK-293
# T2 sequence (P37231 238-503 limits assumed): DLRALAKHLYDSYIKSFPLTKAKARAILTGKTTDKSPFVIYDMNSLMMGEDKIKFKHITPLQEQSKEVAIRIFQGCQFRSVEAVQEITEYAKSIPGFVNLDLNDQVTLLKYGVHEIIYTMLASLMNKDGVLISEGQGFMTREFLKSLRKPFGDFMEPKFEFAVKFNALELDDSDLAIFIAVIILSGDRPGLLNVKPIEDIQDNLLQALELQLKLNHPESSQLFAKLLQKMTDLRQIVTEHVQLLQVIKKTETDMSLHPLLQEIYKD
# Experimental: b) Determination of hPPARγ Activity:
# Ligand binding domain of hPPARγ1 was fused to DNA binding domain of Yeast transcription factor GAL4 in eucaryotic expression vector. Using lipofectamine (Gibco BRL, USA) as transfecting reagent HEK-293 cells were transfected with this plasmid and a reporter plasmid harboring the luciferase gene driven by a GAL4 specific promoter. Compound was added at 1 μM concentration after 48 hrs of transfection and incubated overnight.
# Swiss albino mice = assay: Plasma triglyceride lowering activity in Swiss albino mice and guinea pigs; format: in vivo, mouse
# Experimental: c) Plasma Triglyceride and Total Cholesterol Lowering Activity in Swiss Albino Mice and Guinea Pigs:
# Male Swiss albino mice (SAM) and male Guinea pigs were obtained from NIN and housed in DRF animal house. All these animals were maintained under 12 hour light and dark cycle at 25±1° C. Animals were given standard laboratory chow (NIN, Hyderabad, India) and water, ad libitum. SAM of 20-25 g body weight range and Guinea pigs of 500-700 g body weight range were used (Oliver, P., Plancke, M. O., Marzin, D., Clavey, V., Sauzieres, J and Fruchart, J. C. Effects of fenofibrate, gemfibrozil and nicotinic acid on plasma lipoprotein levels in normal and hyperlipidemic mice. Atherosclerosis, 1988. 70: 107-114).
# The test compounds were administered orally to Swiss albino mice at 0.3 to 30 mg/kg/day dose for 6 days. Control mice were treated with vehicle (0.25% Carboxymethylcellulose; dose 10 ml/kg). The test compounds were administered orally to Guinea pigs at 0.3 to 30 mg/kg/day dose for 6 days. Control animals were treated with vehicle (0.25% Carboxymethylcellulose; dose 5 ml/kg).
# The blood samples were collected in fed state 1 hour after drug administration on 0 and 6 day of treatment. The blood was collected from the retro-orbital sinus through heparinised capillary in EDTA containing tubes. After centrifugation, plasma sample was separated for triglyceride and total cholesterol (Wieland, O. Methods of Enzymatic analysis. Bergermeyer, H. O., Ed., 1963. 211-214; Trinder, P. Ann. Clin. Biochem. 1969. 6: 24-27). Measurement of plasma triglyceride, total cholesterol and HDL were done using commercial kits (Dr. Reddy's Diagnostic Division, Hyderabad, India).
# as §1
SMILES,melting point,also measured
CCOC(=O)C(C)(C)Oc1ccc(C(=O)NCCn2c(CC)nc(-c3ccccc3)cc2=O)cc1 [Example 2],148 to 150 °C,
CCOC(=O)C(C)(C)Oc1ccc(NC(=O)Cn2c(CC)nc(-c3ccccc3)cc2=O)cc1 [Example 4],128 to 130 °C,
CCCCCCC(Oc1ccc(NC(=O)Cn2c(CC)nc(-c3ccccc3)cc2=O)cc1)C(=O)OCC (stereo not drawn) [Example 9],140 to 143 °C,
CCCC(Oc1ccc(OCCn2c(CC)nc(-c3ccccc3)cc2=O)cc1)C(=O)OCC (stereo not drawn) [Example 16],80 to 82 °C,
CCCC(Nc1ccc(OCCn2c(CC)nc(-c3ccccc3)cc2=O)cc1)C(=O)OCC (stereo not drawn) [Example 24],40 °C,
CCCCCCCN(c1ccc(OCCn2c(CC)nc(-c3ccccc3)cc2=O)cc1)C(C)C(=O)OCC (stereo not drawn) [Example 25],88 to 89 °C,
"CCCCCCCN(C(=O)Cn1c(CC)nc(-c2ccccc2)cc1=O)c1ccc(SC(C(=O)O)C(C)C)cc1 (stereo not drawn) [Example 26, 2-[4-(2-Ethyl-6-oxo-4-phenyl-1,6-dihydropyrimidin-1-ylmethyl(heptyl)carboxamido)phenylsulfanyl}-3-methyl butanoic acid]",,Reduction in Blood Glucose Level (%) (C57BL/KsJ-db/db mice): 41%; Triglyceride Lowering (%) (C57BL/KsJ-db/db mice): 45%
CCc1nc(-c2ccccc2)cc(=O)n1CCNC(=O)c1ccc(OC(C)(C)C(=O)O)cc1 [Example 27],210 °C,
CCc1nc(-c2ccccc2)cc(=O)n1CC(=O)Nc1ccc(OC(C)(C)C(=O)O)cc1 [Example 29],120 °C,
CCCCCCCN(C(=O)Cn1c(CC)nc(-c2ccccc2)cc1=O)c1ccc(OC(C)(C)C(=O)O)cc1 [Example 30],68 to 70 °C,Reduction in Blood Glucose Level (%) (C57BL/KsJ-db/db mice): 34%; Triglyceride Lowering (%) (C57BL/KsJ-db/db mice): 63%
CCc1nc(-c2ccccc2)cc(=O)n1CCOc1ccc(OC(C)(C)C(=O)O)cc1 [Example 31],158 to 160 °C,
CCCC(Oc1ccc(OCCn2c(CC)nc(-c3ccccc3)cc2=O)cc1)C(=O)O (stereo not drawn) [Example 32],190 to 192 °C,
CCc1nc(-c2ccccc2)cc(=O)n1CCOc1ccc(OC(C)(CC)C(=O)O)cc1 (stereo not drawn) [Example 33],159 to 161 °C,
CCc1nc(-c2ccccc2)cc(=O)n1CCOc1ccc(NC(C)C(=O)O)cc1 (stereo not drawn) [Example 34],52 °C,
CCc1nc(-c2ccccc2)cc(=O)n1CCOc1ccc(NC(C)C(=O)O)cc1 (stereo not drawn) [Example 35],192 to 194 °C,PPARα (hPPARα): 6.2; PPARγ (hPPARγ1): 2.2
CCCCCCCN(C(=O)Cn1c(CC)nc(-c2ccccc2)cc1=O)c1ccc(OC(C)(CC)C(=O)O)cc1 (stereo not drawn) [Example 36],52 to 54 °C,PPARα (hPPARα): 7.5; PPARγ (hPPARγ1): 1.2
CCCCCCCN(C(=O)Cn1c(CC)nc(-c2ccccc2)cc1=O)c1ccc(OC(CCC)C(=O)O)cc1 (stereo not drawn) [Example 37],48 to 50 °C,
CCc1nc(-c2ccccc2)cc(=O)n1CCOc1ccc(NC(C)(C)C(=O)O)cc1 [Example 38],168 to 169 °C,
CCCC(Nc1ccc(OCCn2c(CC)nc(-c3ccccc3)cc2=O)cc1)C(=O)O (stereo not drawn) [Example 39],155 to 157 °C,
CCc1nc(-c2ccccc2)cc(=O)n1CCSc1ccc(OCC(=O)O)cc1 [Example 41],164 to 166 °C,
CCCCCCCN(C(=O)Cn1c(CC)nc(-c2ccccc2)cc1=O)c1ccc(S[C@@H](CC(C)C)C(=O)O)cc1 [Example 43],58 to 60 °C,PPARα (hPPARα): 6.7; PPARγ (hPPARγ1): 2.2; Reduction in Blood Glucose Level (%) (C57BL/KsJ-db/db mice): 39%; Triglyceride Lowering (%) (C57BL/KsJ-db/db mice): 43%; Triglyceride Lowering (%) (Swiss albino mice; 3 mg/kg orally for 6 days): 44%
CCc1nc(-c2ccccc2)cc(=O)n1CCOc1ccc(SC(C(=O)O)C(C)C)cc1 (stereo not drawn) [Example 44],64 °C,Triglyceride Lowering (%) (Swiss albino mice; 3 mg/kg orally for 6 days): 36%
CCc1nc(-c2ccccc2)cc(=O)n1CC(=O)Nc1ccc(SC(C(=O)O)C(C)C)cc1 (stereo not drawn) [Example 45],195 to 200 °C,PPARα (hPPARα): 7.2; PPARγ (hPPARγ1): 0.8
CCc1nc(-c2ccccc2)cc(=O)n1CCNc1ccc(SC(CC)C(=O)O)cc1 (stereo not drawn) [Example 46],118 °C,PPARα (hPPARα): 6.5; PPARγ (hPPARγ1): 3.1
CCc1nc(-c2ccccc2)cc(=O)n1CCNc1ccc(SC(CC(C)C)C(=O)O)cc1 (stereo not drawn) [Example 47],62 to 64 °C,
CCc1nc(-c2ccccc2)cc(=O)n1CCNc1ccc(SC(C(=O)O)C(C)C)cc1 (stereo not drawn) [Example 48],65 to 70 °C,
"CCCCCCCN(C(=O)Cn1c(CC)nc(-c2ccccc2)cc1=O)c1ccc(SC(CC)C(=O)O)cc1 (stereo not drawn) [Example 49, 2-[4-(2-Ethyl-6-oxo-4-phenyl-1,6-dihydropyrimidin-1-ylmethyl(heptyl)carboxamido)phenylsulfanyl}butanoic acid, arginine salt]",,Triglyceride Lowering (%) (Swiss albino mice; 10 mg/kg orally for 6 days): 69%
"Cc1cccc(Nc2cc(Cl)nc(SCC(=O)O)n2)c1C [Wy 14643, reference compound]",,PPARα (hPPARα): 7
